In patent US20210255193A1, “LYSINE REACTIVE PROBES AND USES THEREOF” (The Scripps Research Institute, priority 2017, published 2021):

Experiments:
Assay in all cases: competitive isoTOP-ABPP
Assay type in all cases: binding
[1] = target: T1, TTR Transthyretin (Homo sapiens, UniProt P02766); conditions: for R value (DMSO/fragment) for probe 1 labeling: P02766_K35; for R value (DMSO/fragment) for probe 1 labeling / isoTOP-ABPP reactivity ratio at lysine P02766_K35 / isoTOP-ABPP ratio (R) at liganded lysine P02766_K35: 50 uM, in vitro; for R value (DMSO/fragment) for probe 1 labeling / isoTOP-ABPP reactivity ratio at lysine P02766_K35: 231 sol; for isoTOP-ABPP ratio (R) at liganded lysine P02766_K35: sol, 231
T1 construct: isoTOP-ABPP experiments performed in cell lysates (in vitro); endogenous in cells; host or cells: MDA-MB-231 soluble lysate
How it was run: (§1)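 Cell lysate (0.5 ml) was pre-treated with fragment, 50 μM for activated esters or 100 μM for guanidinylating agents, versus DMSO, then labeled 1 h at ambient temperature with 0.1 mM STP-alkyne. Light/heavy TEV tags attached by CuAAC; R = DMSO/compound MS1 peak-area ratio, median per lysine.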

[2] = target: T2, MRPL12 39S ribosomal protein L12, mitochondrial (Homo sapiens, UniProt P52815); conditions: for R value (DMSO/fragment) for probe 1 labeling: P52815_K87; for R value (DMSO/fragment) for probe 1 labeling / isoTOP-ABPP reactivity ratio at lysine P52815_K87 / isoTOP-ABPP ratio (R) at liganded lysine P52815_K87: 50 uM, in vitro; for R value (DMSO/fragment) for probe 1 labeling / isoTOP-ABPP reactivity ratio at lysine P52815_K87: 231 sol; for isoTOP-ABPP ratio (R) at liganded lysine P52815_K87: sol, 231; for isoTOP-ABPP ratio, lysine P52815_K87: 50 uM_231_sol_in vitro, possible other lysine B4DLN1_K87, P52815_K91
T2 construct: isoTOP-ABPP experiments performed in cell lysates (in vitro); endogenous in cells; host or cells: soluble proteome of human cancer cell lines (MDA-MB-231, Ramos, Jurkat)
How it was run: as §1

[3] = target: T3, AKR1C3 Aldo-keto reductase family 1 member C3 (Homo sapiens, UniProt P42330); conditions: for isoTOP-ABPP ratio (R) at liganded lysine P42330_K270: sol, 231; for isoTOP-ABPP ratio, lysine P42330_K270: possible other lysine P52895_K270, P17516_K270, Q04828_K270
T3 construct: isoTOP-ABPP experiments performed in cell lysates (in vitro); endogenous in cells; host or cells: soluble proteome of human cancer cell lines (MDA-MB-231; Ramos and Jurkat also prepared)
T3 sequence (P42330 1-323): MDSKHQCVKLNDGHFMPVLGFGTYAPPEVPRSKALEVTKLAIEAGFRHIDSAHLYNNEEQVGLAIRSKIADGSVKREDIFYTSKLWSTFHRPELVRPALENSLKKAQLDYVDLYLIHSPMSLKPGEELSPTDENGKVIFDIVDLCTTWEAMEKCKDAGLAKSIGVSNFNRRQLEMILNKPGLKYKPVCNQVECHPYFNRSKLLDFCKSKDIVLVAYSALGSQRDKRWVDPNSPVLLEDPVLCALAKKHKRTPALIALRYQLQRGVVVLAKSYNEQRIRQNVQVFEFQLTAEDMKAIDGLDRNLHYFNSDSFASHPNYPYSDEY
How it was run: as §1

[4] = target: T4, FH Fumarate hydratase, mitochondrial (Homo sapiens, UniProt P07954); conditions: for R value (DMSO/fragment) for probe 1 labeling: P07954_K311; for R value (DMSO/fragment) for probe 1 labeling / isoTOP-ABPP reactivity ratio at lysine P07954_K311: 231 sol
T4 construct: isoTOP-ABPP experiments performed in cell lysates (in vitro); endogenous in cells; host or cells: MDA-MB-231 soluble lysate
T4 sequence (P07954 45-510): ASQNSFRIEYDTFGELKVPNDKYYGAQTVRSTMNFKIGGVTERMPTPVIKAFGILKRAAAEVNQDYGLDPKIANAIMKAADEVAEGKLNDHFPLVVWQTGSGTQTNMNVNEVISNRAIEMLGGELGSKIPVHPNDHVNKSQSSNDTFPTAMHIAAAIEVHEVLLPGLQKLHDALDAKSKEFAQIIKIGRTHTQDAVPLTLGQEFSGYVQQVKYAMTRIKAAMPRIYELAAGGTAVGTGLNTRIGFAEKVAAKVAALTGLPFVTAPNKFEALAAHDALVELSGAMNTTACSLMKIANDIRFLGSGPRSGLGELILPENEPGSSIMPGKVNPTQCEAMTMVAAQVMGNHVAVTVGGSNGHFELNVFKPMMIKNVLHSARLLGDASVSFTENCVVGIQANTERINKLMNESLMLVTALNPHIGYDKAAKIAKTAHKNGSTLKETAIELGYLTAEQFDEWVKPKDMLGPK
How it was run: as §1

O=C(Oc1c(F)c(F)c(F)c(F)c1F)C(c1ccccc1)c1ccccc1 [fragment 20, Pentafluorophenyl 2,2-diphenylacetate]
R value (DMSO/fragment) for probe 1 labeling [1]: 1.4 | R value (DMSO/fragment) for probe 1 labeling [2]: 0.9 | R value (DMSO/fragment) for probe 1 labeling ([3]; P42330_K270, 50 uM, 231 sol, in vitro): 1.4 | R value (DMSO/fragment) for probe 1 labeling ([4]; 50 uM, in vitro): 1.2

O=C(Oc1c(F)c(F)c(F)c(F)c1F)c1cc(C(F)(F)F)cc(C(F)(F)F)c1 [fragment 21, Pentafluorophenyl 3,5-bis(trifluoromethyl)benzoate]
R value (DMSO/fragment) for probe 1 labeling [1]: 2.6 | R value (DMSO/fragment) for probe 1 labeling [2]: 0.6 | R value (DMSO/fragment) for probe 1 labeling ([4]; 50 uM, in vitro): 1.3

Cn1cc(CC(=O)Oc2c(F)c(F)c(F)c(F)c2F)c2ccccc21 [fragment 22, Pentafluorophenyl 2-(1-methyl-1H-indol-3-yl)acetate]
R value (DMSO/fragment) for probe 1 labeling [1]: 2.6 | R value (DMSO/fragment) for probe 1 labeling [2]: 1.4

COc1cc(CCC(=O)Oc2c(F)c(F)c(F)c(F)c2F)cc(OC)c1OC [fragment 23, Pentafluorophenyl 3-(3,4,5-trimethoxyphenyl)propanoate]
R value (DMSO/fragment) for probe 1 labeling [1]: 1.0 | R value (DMSO/fragment) for probe 1 labeling ([4]; 50 uM, in vitro): 2.6

O=C(Oc1c(F)c(F)c(F)c(F)c1F)C1CCN(C(=O)OCc2ccccc2)CC1 [fragment 24, 1-Benzyl 4-(pentafluorophenyl) piperidine-1,4-dicarboxylate]
isoTOP-ABPP reactivity ratio at lysine P42330_K270 ([3]; 50 uM, 231 sol, in vitro): 4.2

O=C(CCc1coc2cc(F)ccc2c1=O)Oc1c(F)c(F)c(F)c(F)c1F [fragment 26, Pentafluorophenyl 3-(7-fluoro-4-oxo-4H-chromen-3-yl)propanoate]
isoTOP-ABPP reactivity ratio at lysine P07954_K311 ([4]; 50 uM, in vitro): 2.4

O=C(CN1C(=O)c2ccccc2C1=O)Oc1c(F)c(F)c(F)c(F)c1F [fragment 27, Pentafluorophenyl 2-(1,3-dioxoisoindolin-2-yl)acetate]
isoTOP-ABPP reactivity ratio at lysine P42330_K270 ([3]; 50 uM, 231 sol, in vitro): 2.7

CCn1cc(C(=O)Oc2c(F)c(F)c(F)c(F)c2F)c(=O)c2ccc(C)nc21 [fragment 28, Pentafluorophenyl 1-ethyl-7-methyl-4-oxo-1,4-dihydro-1,8-naphthyridine-3-carboxylate]
isoTOP-ABPP reactivity ratio at lysine P52815_K87 [2]: 0.8 | isoTOP-ABPP reactivity ratio at lysine P42330_K270 ([3]; 50 uM, 231 sol, in vitro): 1.8

O=C(CCc1cn(-c2ccccc2)nc1-c1ccccc1)Oc1ccc([N+](=O)[O-])cc1[N+](=O)[O-] [fragment 29, 2,4-Dinitrophenyl 3-(1,3-diphenyl-1H-pyrazol-4-yl)propanoate]
isoTOP-ABPP reactivity ratio at lysine P02766_K35 [1]: 1.6 | isoTOP-ABPP reactivity ratio at lysine P52815_K87 [2]: 1.1 | isoTOP-ABPP reactivity ratio at lysine P42330_K270 ([3]; 50 uM, 231 sol, in vitro): 2.1

O=C(Oc1ccc([N+](=O)[O-])cc1[N+](=O)[O-])C(c1ccccc1)c1ccccc1 [fragment 30, 2,4-Dinitrophenyl 2,2-diphenylacetate]
isoTOP-ABPP reactivity ratio at lysine P02766_K35 [1]: 1.5 | isoTOP-ABPP reactivity ratio at lysine P07954_K311 ([4]; 50 uM, in vitro): 5.2

O=C(Oc1ccc([N+](=O)[O-])cc1[N+](=O)[O-])c1cc(C(F)(F)F)cc(C(F)(F)F)c1 [fragment 31, 2,4-Dinitrophenyl 3,5-bis(trifluoromethyl)benzoate]
isoTOP-ABPP reactivity ratio at lysine P02766_K35 [1]: 16.1 | targeting of K35 ([1]; TTR K35): preferentially targeted | isoTOP-ABPP reactivity ratio at lysine P07954_K311 ([4]; 50 uM, in vitro): 1.4

Cn1cc(CC(=O)Oc2ccc([N+](=O)[O-])cc2[N+](=O)[O-])c2ccccc21 [fragment 32, 2,4-Dinitrophenyl 2-(1-methyl-1H-indol-3-yl)acetate]
isoTOP-ABPP reactivity ratio at lysine P02766_K35 [1]: 3.1

O=C(Oc1ccc([N+](=O)[O-])cc1[N+](=O)[O-])C1CCN(C(=O)OCc2ccccc2)CC1 [fragment 34, 1-Benzyl 4-(2,4-dinitrophenyl) piperidine-1,4-dicarboxylate]
isoTOP-ABPP ratio (R) at liganded lysine P02766_K35 [1]: 2.2 | isoTOP-ABPP ratio (R) at liganded lysine P42330_K270 ([3]; 50 uM, in vitro): 1.1

O=C(Oc1ccc([N+](=O)[O-])cc1[N+](=O)[O-])c1ccc2ccccc2n1 [fragment 35, 2,4-Dinitrophenyl quinoline-2-carboxylate]
isoTOP-ABPP ratio (R) at liganded lysine P02766_K35 [1]: 15.6 | isoTOP-ABPP ratio (R) at liganded lysine P52815_K87 [2]: 0.9 | isoTOP-ABPP ratio (R) at liganded lysine P42330_K270 ([3]; 50 uM, in vitro): 0.6

O=C(CCc1coc2cc(F)ccc2c1=O)Oc1ccc([N+](=O)[O-])cc1[N+](=O)[O-] [fragment 36, 2,4-Dinitrophenyl 3-(7-fluoro-4-oxo-4H-chromen-3-yl)propanoate]
isoTOP-ABPP ratio (R) at liganded lysine P02766_K35 [1]: 2.4 | isoTOP-ABPP ratio (R) at liganded lysine P42330_K270 ([3]; 50 uM, in vitro): 0.6

O=C(Oc1ccc([N+](=O)[O-])cc1[N+](=O)[O-])c1ccc(-c2ccccc2)cc1 [fragment 37, 2,4-Dinitrophenyl [1,1′-biphenyl]-4-carboxylate]
isoTOP-ABPP ratio (R) at liganded lysine P42330_K270 ([3]; 50 uM, in vitro): 0.8 | isoTOP-ABPP ratio (R) at liganded lysine P07954_K311 ([4]; 50 uM, in vitro, sol, 231): 1.2

O=C(CC12CC3CC(CC(C3)C1)C2)Oc1ccc([N+](=O)[O-])cc1[N+](=O)[O-] [fragment 38, 2,4-Dinitrophenyl 2-(adamantan-1-yl)acetate]
isoTOP-ABPP ratio (R) at liganded lysine P02766_K35 [1]: 1.2 | isoTOP-ABPP ratio (R) at liganded lysine P52815_K87 [2]: 0.9 | isoTOP-ABPP ratio (R) at liganded lysine P42330_K270 ([3]; 50 uM, in vitro): 0.9

O=C(Oc1ccc([N+](=O)[O-])cc1[N+](=O)[O-])c1ccccc1Nc1cccc(C(F)(F)F)c1 [fragment 40, 2,4-Dinitrophenyl 2-((3-(trifluoromethyl)phenyl)amino)benzoate]
isoTOP-ABPP ratio (R) at liganded lysine P42330_K270 ([3]; 50 uM, in vitro): 2.2

O=C(Oc1ccc([N+](=O)[O-])cc1[N+](=O)[O-])C(c1ccccc1)(c1ccccc1)c1ccccc1 [fragment 42, 2,4-Dinitrophenyl 2,2,2-triphenylacetate]
isoTOP-ABPP ratio (R) at liganded lysine P02766_K35 [1]: 1.0 | isoTOP-ABPP ratio (R) at liganded lysine P52815_K87 [2]: 1.0 | isoTOP-ABPP ratio (R) at liganded lysine P42330_K270 ([3]; 50 uM, in vitro): 0.9

N#Cc1ccc(C(=O)Oc2ccc([N+](=O)[O-])cc2[N+](=O)[O-])cc1 [fragment 44, 2,4-Dinitrophenyl 4-cyanobenzoate]
isoTOP-ABPP ratio, lysine P02766_K35 ([1]; 50 uM_231_sol_in vitro): 20.0 | isoTOP-ABPP ratio, lysine P52815_K87 [2]: 1.1 | isoTOP-ABPP ratio, lysine P42330_K270 ([3]; 50 uM_231_sol_in vitro): 0.5

O=C(ON1C(=O)CCC1=O)c1cc(C(F)(F)F)cc(C(F)(F)F)c1 [fragment 46, 3,5-Bis(trifluoromethyl)benzoic acid NHS ester]
isoTOP-ABPP ratio, lysine P02766_K35 ([1]; 50 uM_231_sol_in vitro): 2.3 | isoTOP-ABPP ratio, lysine P52815_K87 [2]: 0.6

O=C(Oc1c(F)c(F)cc(F)c1F)c1cc(C(F)(F)F)cc(C(F)(F)F)c1 [fragment 48, 2,3,5,6-Tetrafluorophenyl 3,5-bis(trifluoromethyl)benzoate]
isoTOP-ABPP ratio, lysine P52815_K87 [2]: 0.9

COC(=O)NC(=NC(=O)OCC1c2ccccc2-c2ccccc21)n1cccn1 [fragment 49, N-Methoxycarbonyl-N′-9-fluorenylmethoxycarbonyl-pyrazole-1-carboxamidine]
isoTOP-ABPP ratio, lysine P42330_K270 ([3]; 100 uM_231_sol_in vitro): 0.8

CC(C)(C)OC(=O)N=C(NC(=O)OC(C)(C)C)n1cccn1 [fragment 50, reference compound]
isoTOP-ABPP ratio, lysine P02766_K35 ([1]; 100 uM_231_sol_in vitro): 2.1 | isoTOP-ABPP ratio, lysine P42330_K270 ([3]; 100 uM_231_sol_in vitro): 0.7

NC(=O)c1cc(C(F)(F)F)cc(C(F)(F)F)c1 [fragment 51, reference compound]
isoTOP-ABPP ratio, lysine P52815_K87 [2]: 0.9 | isoTOP-ABPP ratio, lysine P42330_K270 ([3]; 50 uM_231_sol_in vitro): 0.8 | isoTOP-ABPP ratio, lysine P07954_K311 ([4]; 50 uM_231_sol_in vitro): 1.0
